Patent US20230150986A1, “ANTAGONISTS OF THE MUSCARINIC ACETYLCHOLINE RECEPTOR M4” (Vanderbilt University, priority 2019, published 2023)

Key:
Assay type in all cases: in vitro ADME
[1] = molecular target: T1, P-gp (Homo sapiens, UniProt P08183); assay: P-gp efflux in MDR1-MDCK cell monolayers; details: dog, pH 7.4, MDCK-MDR1, 5 μM
T1 construct: expressed in transfected cells; host or cells: MDR1-MDCK
Description: MDR1-MDCK cell monolayers were grown to confluence on collagen-coated, microporous membranes in 12-well assay plates. The permeability assay buffer was Hanks' balanced salt solution containing 10 mM HEPES and 15 mM glucose at a pH of 7.4. The buffer in the receiver chamber also contained 1% bovine serum albumin. The dosing solution concentration was 5 μM of test article in the assay buffer. Cell monolayers were dosed on the apical side (A- to -B) or basolateral side (B- to -A) and incubated at 37° C. with 5% CO2 in a humidified incubator. Samples were taken from the donor and receiver chambers at 120 minutes Each determination was performed in duplicate. The flux of lucifer yellow was also measured post-experimentally for each monolayer to ensure no damage was inflicted to the cell monolayers during the flux period. All samples were assayed by LC-MS/MS using electrospray ionization.

[2] = molecular target: T2, cytochrome P450 3A4 (Homo sapiens, UniProt P08684); assay: Cytochrome P450 cocktail inhibition assay, 3A4 (midazolam); details: human liver microsomes 0.1 mg/mL; read-out: CYP Inhibition (3A4)
T2 construct: human liver microsomes (HLM; 0.1 mg/mL); from tissue; host or cells: human liver microsomes
Description: (§1) Solutions of substrates for cytochrome P450 enzymes (1A2: Phenacetin, 10 μM; 2C9: Diclofenac, 5 μM; 2D6: Dextromethorphan, 5 μM; 3A4: Midazolam, 2 μM; as a mixture), test compound (VU6028418; multiple concentrations), and the positive control for pan-P450 inhibition (miconazole; multiple concentrations) were prepared. A reaction mixture of assay buffer (100 mM Kpi at pH 7.4), human liver microsomes (HLM; 0.1 mg/mL), and the substrate mixture were aliquoted into a 96-deepwell plate. The test compound and control were then added to the plate such that the final concentration of test compound ranged from 0.1-30 μM (two replicates per concentration). The assay plate was vortexed (briefly) and pre-incubated at 37° C. in an orbital shaker for 15 minutes. The reaction was initiated by addition of NADPH (1 mM, final concentration) and continued for 8 min before it was quenched by acetonitrile (2× volume) containing an LCMS internal standard (carbamazepine, 50 nM). The plate was then centrifuged (4000 rcf, 4° C., 10 min), and the resulting supernatant was diluted with water (1× volume) for LC-MS/MS. Assay samples were analyzed via electrospray ionization on an AB Sciex API-4000 (Foster City, Calif.) triple-quadrupole mass spectrometer coupled to Agilent Technologies 1290 Infinity series pumps (Santa Clara, Calif.), and a Leap Technologies CTC PAL auto -sampler (Carrboro, NC). Analytes were separated by gradient elution on a Phenomenex Kinetex (C18 2.1×50 mm 5 μm) column (Torrance, Calif.) thermostated at 40° C. The HPLC mobile phase A was 0.1% formic acid in water (pH unadjusted), and the mobile phase B was 0.1% formic acid in acetonitrile (pH unadjusted). […] The total run time was 2.5 min and the HPLC flow rate was 0.5 mL/min. The source temperature was set at 500° C. and mass spectral analyses were performed using multiple reaction monitoring (MRM) with mass transitions specific to each substrate's metabolite utilizing a Turbo-Ionspray® source in positive ionization mode (5.0 kV spray voltage). The test compound and control IC50 values for each enzyme were obtained by quantitating the inhibition of metabolite formation for each substrate. A 0 μM test compound (or control) conditions represented 100% enzymatic activity, and the effect of increasing test compound concentrations on enzymatic activity was then calculated from the % of control activity. Inhibition curves were fitted using XLfit 5.2.2 (four-parameter logistic model, equation 201) in order to calculate the concentration that produced half-maximal inhibition (IC50) of each enzyme.

[3] = molecular target: T3, cytochrome P450 1A2 (Homo sapiens, UniProt P05177); assay: Cytochrome P450 cocktail inhibition assay, 1A2 (phenacetin); details: human liver microsomes 0.1 mg/mL; read-out: CYP Inhibition (1A2)
T3 construct: human liver microsomes (HLM; 0.1 mg/mL); from tissue; host or cells: human liver microsomes
T3 sequence (P05177 1-516): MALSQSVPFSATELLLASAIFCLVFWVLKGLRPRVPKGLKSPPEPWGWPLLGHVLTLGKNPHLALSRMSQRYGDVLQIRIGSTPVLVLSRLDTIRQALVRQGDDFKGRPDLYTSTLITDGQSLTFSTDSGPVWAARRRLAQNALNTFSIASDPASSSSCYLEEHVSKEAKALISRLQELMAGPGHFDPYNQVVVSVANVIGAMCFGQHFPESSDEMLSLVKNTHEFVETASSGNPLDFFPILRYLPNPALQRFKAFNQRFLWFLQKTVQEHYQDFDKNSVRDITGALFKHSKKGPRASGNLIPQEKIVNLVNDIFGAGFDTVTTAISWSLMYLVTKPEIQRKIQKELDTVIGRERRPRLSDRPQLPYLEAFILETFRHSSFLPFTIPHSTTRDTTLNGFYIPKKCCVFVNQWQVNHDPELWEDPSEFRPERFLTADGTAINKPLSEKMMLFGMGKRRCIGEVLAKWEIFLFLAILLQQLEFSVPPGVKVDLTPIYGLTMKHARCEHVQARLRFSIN
Description: as §1

[4] = molecular target: T4, cytochrome P450 2C9 (Homo sapiens, UniProt P11712); assay: Cytochrome P450 cocktail inhibition assay, 2C9 (diclofenac); details: human liver microsomes 0.1 mg/mL; read-out: CYP Inhibition (2C9)
T4 construct: human liver microsomes (HLM; 0.1 mg/mL); from tissue; host or cells: human liver microsomes
Description: as §1

T4 sequence (P11712 whole entry): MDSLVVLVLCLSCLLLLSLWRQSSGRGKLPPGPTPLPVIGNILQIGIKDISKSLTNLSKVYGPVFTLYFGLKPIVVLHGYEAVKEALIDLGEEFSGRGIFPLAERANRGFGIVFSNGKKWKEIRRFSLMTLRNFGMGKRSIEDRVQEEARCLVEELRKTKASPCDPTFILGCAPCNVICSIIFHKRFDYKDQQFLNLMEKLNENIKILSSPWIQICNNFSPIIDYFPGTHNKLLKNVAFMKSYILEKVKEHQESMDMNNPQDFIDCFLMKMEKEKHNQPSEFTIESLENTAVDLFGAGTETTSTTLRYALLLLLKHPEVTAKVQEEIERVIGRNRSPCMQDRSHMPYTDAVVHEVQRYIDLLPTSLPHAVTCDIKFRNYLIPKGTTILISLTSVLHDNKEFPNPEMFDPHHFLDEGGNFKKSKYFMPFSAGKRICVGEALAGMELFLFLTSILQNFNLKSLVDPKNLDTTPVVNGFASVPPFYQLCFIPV
T1 sequence (P08183 whole entry): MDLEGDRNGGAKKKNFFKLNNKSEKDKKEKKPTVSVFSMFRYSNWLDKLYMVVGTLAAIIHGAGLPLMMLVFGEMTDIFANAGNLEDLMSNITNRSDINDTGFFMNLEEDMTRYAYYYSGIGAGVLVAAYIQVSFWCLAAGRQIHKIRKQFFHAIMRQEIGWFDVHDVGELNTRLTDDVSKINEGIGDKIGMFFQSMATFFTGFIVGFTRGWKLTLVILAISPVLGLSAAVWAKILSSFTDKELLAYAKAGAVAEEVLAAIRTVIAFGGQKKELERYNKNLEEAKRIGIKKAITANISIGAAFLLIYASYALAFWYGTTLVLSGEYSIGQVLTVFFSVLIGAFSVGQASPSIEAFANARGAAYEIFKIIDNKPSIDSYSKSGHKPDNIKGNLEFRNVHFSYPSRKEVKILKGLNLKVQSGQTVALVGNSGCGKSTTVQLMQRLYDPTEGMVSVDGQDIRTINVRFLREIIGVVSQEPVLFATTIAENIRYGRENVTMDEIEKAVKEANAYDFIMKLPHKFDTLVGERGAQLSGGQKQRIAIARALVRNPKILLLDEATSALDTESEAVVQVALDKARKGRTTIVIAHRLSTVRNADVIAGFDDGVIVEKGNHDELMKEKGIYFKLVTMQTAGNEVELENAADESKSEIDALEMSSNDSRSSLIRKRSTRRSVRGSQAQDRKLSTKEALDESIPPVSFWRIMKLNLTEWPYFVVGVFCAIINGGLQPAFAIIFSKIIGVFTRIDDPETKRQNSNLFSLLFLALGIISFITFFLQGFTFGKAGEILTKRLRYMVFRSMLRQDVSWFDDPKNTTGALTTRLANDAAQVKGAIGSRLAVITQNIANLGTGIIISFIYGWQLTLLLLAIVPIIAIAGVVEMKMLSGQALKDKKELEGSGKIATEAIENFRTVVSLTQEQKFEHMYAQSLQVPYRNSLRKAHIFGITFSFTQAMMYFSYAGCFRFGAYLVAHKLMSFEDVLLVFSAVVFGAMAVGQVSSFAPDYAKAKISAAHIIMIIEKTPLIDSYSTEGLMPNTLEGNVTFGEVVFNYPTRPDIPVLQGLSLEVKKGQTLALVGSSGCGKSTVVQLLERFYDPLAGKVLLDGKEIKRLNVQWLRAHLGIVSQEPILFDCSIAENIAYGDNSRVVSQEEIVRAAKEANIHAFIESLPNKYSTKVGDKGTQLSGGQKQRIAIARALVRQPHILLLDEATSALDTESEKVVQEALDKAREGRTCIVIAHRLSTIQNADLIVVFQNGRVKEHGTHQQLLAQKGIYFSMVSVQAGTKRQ
T2 sequence (P08684 whole entry): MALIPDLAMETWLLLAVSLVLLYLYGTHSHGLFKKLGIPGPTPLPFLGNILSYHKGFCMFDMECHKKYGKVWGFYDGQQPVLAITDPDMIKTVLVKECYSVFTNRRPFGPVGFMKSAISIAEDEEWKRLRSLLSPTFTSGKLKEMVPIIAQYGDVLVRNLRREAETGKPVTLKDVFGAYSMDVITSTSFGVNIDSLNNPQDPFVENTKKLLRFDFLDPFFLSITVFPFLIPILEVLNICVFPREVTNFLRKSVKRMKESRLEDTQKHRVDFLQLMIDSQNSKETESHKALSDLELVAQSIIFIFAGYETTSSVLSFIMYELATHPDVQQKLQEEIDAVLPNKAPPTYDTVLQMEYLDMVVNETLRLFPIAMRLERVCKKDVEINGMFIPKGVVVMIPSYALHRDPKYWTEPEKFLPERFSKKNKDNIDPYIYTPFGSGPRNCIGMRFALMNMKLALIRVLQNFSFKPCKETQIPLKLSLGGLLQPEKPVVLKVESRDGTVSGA

| SMILES | efflux ratio at 120 min, 5 μM [1] | IC50 [2] | IC50 [3] | IC50 [4] |
| --- | --- | --- | --- | --- |
| Fc1cc(F)c(F)c(-c2ccc(N[C@H]3C[C@@H]4CN(CC5CCOCC5)C[C@@H]4C3)nn2)c1 [Compound 1, (3aR,5s,6aS)-2-((tetrahydro-2H-pyran-4-yl)methyl)-N-(6-(2,3,5-trifluorophenyl)pyridazin-3-yl)octahydrocyclopenta[c]pyrrol-5-amine] | 8.9 | > 30 µM | > 30 µM | 9.8 µM |
| Fc1cc(F)c(F)c(-c2ccc(N[C@H]3C[C@@H]4CN(Cc5ccccn5)C[C@@H]4C3)nn2)c1 [Compound 2, (3aR,5s,6aS)-2-(pyridin-2-ylmethyl)-N-(6-(2,3,5-trifluorophenyl)pyridazin-3-yl)octahydrocyclopenta[c]pyrrol-5-amine] | 2.6 | > 30 µM | 22.6 µM | > 30 µM |
